# Publication PMC10366102, “Dose escalation and expansion cohorts in patients with advanced breast cancer in a Phase I study of the CDK7-inhibitor samuraciclib” (Nature Communications, 2023)
# Entries after “also recorded” stand apart in the source; their conditions may differ.
# Key:
# [1] = Module 2A trough PK of samuraciclib and fulvestrant; type: in vivo, human
# Source text: PK parameters were derived using standard non-compartmental methods.
# o. Radionuclide Bone Scans, Whole Body should be performed at Screening. See also footnote a.
# • If at Screening bone lesions were identified, scans will be repeated during the active treatment phase and during follow-up visits every 16 weeks (± 7 days) from Cycle 1 Day
# 1, and at the time of confirmation of CR.
# • If no bone lesions were identified at Screening, bone scans will only be performed when clinically indicated (i.e., patient describes new or worsening bone pain or has
# increasing alkaline phosphatase level or other signs and symptoms of new/progressing bone metastases) but are required at the time of confirmation of CR. New abnormalities
# found on subsequent bone scans must be confirmed by CT scan with bone windows or MRI.
# p. Adverse Event Reporting : Serious Adverse Events (SAEs) must be reported from the time the patient provides informed consent through and including 28 calendar days after the last
# administration of the study drug. SAEs occurring after the active reporting period has ended should be reported if the investigator becomes aware of them. All SAEs that the investigator
# believes have at least a reasonable possibility of being related to the study drugs are to be reported to the Sponsor. All AEs (serious and non-serious) should be recorded on the eCRF […]
# [2] = system: CDK7; conditions: cited from earlier work
# [3] = system: CYP2C19; parameters: method as in ref IB; conditions: human microsomes; ref IB; cited from earlier work
smiles,measurement,setting,value
"CC(C)c1cnn2c(NCc3ccccc3)cc(NC[C@H]3CCNC[C@@H]3O)nc12 [samuraciclib, Samuraciclib]",Interaction between samuraciclib and fulvestrant PK,[1],no fulvestrant interaction; also recorded: did not indicate an interaction; also recorded: No clinical PK interactions
